The test system of series [1] is rat ventral mesencephalan dopaminergic neurons. Kind of series: [3H]Dopamine Cell Culture Assay (6-OHDA neurotoxicity). It counts as cell-based. To be noted: 6-OHDA 30 μM, uptake 22 hrs after exposure. The procedure: Cultures of dopaminergic neurons were prepared according to a modification of the procedure described by Raymon and Leslie (J. Neurochem. 62:1015-1024, 1994). Time-mated pregnant rats were sacrificed on embyronic day 14-15 (crown rump length 11-12 mm) and the embryos removed by cesarean section. The ventral mesencephalon, containing the dopaminergic neurons, was dissected from each embryo. Tissue pieces from approximately 48 embryos were pooled and dissociated both enzymatically and mechanically. An aliquot from the resulting cell suspension was counted and the cells were plated in high glucose DMEM/F12 culture medium with 10% fetal bovine serum at a density of 1×10^5 cells/well of a Biocoat poly-D-lysine-coated 96-well plate. The day following plating was considered 1 day in vitro (DUV). Cells were maintained in a stable environment at 37° C., 95% humidity, and 5% CO2. A partial medium change was performed at 3 DIV. […]
[^3H]Dopamine uptake is used as a measure of the health and integrity of dopaminergic neurons in culture (Prochiantz et al., PNAS 76: 5387-5391, 1979). […] Briefly, cells treated with 6-OHDA in the presence and absence of 5-amino-anthra(9,1-cd)isothiazol-6-one were assessed in the uptake assay 22 hrs after exposure to 6-OHDA. […] Radioactivity was removed and the cultures were washed 3× with ice cold PBS. […]

Series [2] is described as follows: Brain-Blood Plasma Distribution In Vivo. Further details: species or system Sprague-Dawley rats. To be noted: rat. As to the method: 5-Amino-anthra(9,1-cd)isothiazol-6-one was administered intravenously (10 mg/kg) into the veins of Sprague-Dawley rats. After 2 hr, blood samples were obtained from the animals and their vascular systems were perfused with approximately 100 mL of saline to rid their brains of blood. The brains were removed from the animals, weighed, and homogenized in a 50 mL conical tube containing 10 equivalents (w/v) of methanol/saline (1:1) using a Tissue Tearer (Fischer Scientific). The homogenized material was extracted by adding 600 μL of cold methanol to 250 μL of brain homogenate vortexed for 30 sec and subjected to centrifugation for 5 min. After centrifugation, 600 μL of the resulting supernatant was transferred to a clean tube and evaporated at room temperature under reduced pressure to provide a pellet. […] The brain homogenate analysis samples, plasma analysis samples, and standard analysis samples were analyzed and compared using HPLC by injecting 100 μL of a sample onto a 5 μm C-18 Luna column (4.6 mm×150 mm, commercially available from Phenomenex of Torrance, Calif.) and eluting at 1 mL/min with a linear gradient of 30% aqueous acetonitrile containing 0.1% trifluoroacetic acid to 90% aqueous acetonitrile containing 0.1% trifluoroacetic acid over 8 minutes and holding at 90% aqueous acetonitrile containing 0.1% trifluoroacetic acid for 3 min. with absorbance detection at 450 nm. […]

The nature of series [3]: Solubility in aqueous media. It counts as physicochemical.

On to `Nc1ccc2snc3c2c1C(=O)c1ccccc1-3` [5-amino-anthra(9,1-cd)isothiazol-6-one], for which, in series [1], the “protection of dopaminergic neurons ([3H]dopamine uptake)” value is “protects rat ventral mesencephalan neurons from the toxic effects of 6-OHDA”. Also, the brain-drug concentration result in series [2] (10 mg/kg intravenously, 2 hr post-dose) is given as “approximately 65 nmole/g”. Moreover, the blood-brain barrier crossing result in series [2] (following intravenous administration) is “crosses the blood-brain barrier to a significant extent”. Moreover, the “solubility in aqueous media” value in series [3] is “limited solubility”.

For the origin of these results see patent US20040087642A1, “Methods of using and compositions comprising a JNK inhibitor for the treatment, prevention, management and/or modification of pain” (priority 2002, published 2004).
